Our source for the IC50 values is patent US12209084B2, “Serotonin 5-HT2B inhibitory compounds” (Zoetis Services LLC, priority 2021, dated 2025).

Molecules are shown by their SMILES.

The target of this experiment is T1, canine 5-HT2B receptor (Canis lupus familiaris, UniProt Q50DZ8).
T1 construct: expressed in transfected cells; host or cells: CHO-K1
T1 sequence (Q50DZ8 1-434): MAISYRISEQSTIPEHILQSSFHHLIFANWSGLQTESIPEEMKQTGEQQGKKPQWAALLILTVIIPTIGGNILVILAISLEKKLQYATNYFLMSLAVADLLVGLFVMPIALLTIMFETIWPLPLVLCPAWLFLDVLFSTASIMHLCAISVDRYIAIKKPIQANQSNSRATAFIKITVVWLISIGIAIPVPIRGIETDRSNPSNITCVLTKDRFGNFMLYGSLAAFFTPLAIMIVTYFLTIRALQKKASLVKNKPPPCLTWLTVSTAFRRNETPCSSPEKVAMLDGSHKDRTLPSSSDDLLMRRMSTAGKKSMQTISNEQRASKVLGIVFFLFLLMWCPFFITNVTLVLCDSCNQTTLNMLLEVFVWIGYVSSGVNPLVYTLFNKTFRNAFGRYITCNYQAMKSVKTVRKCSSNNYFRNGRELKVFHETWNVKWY
Put plainly: Canine 5-HT2B (c5-HT2B) in-vitro assay (FLIPR calcium response, antagonist mode). It is filed as cell-based. As to conditions: CHO-K1 cells stably expressing the canine 5-HT2B receptor; intracellular calcium response (FLIPR Calcium 5); inhibition of EC80 concentration of serotonin after 10 minute antagonist incubation; read-out: Compound Receptor IC50 Affinities for c5-HT2B. As for the experimental part:
Canine 5-HT2B (c5-HT2B) In-Vitro Assay
CHO-K1 cells stably expressing the canine 5-HT2B receptor were seeded at 20,000 cells per well in 20 μl culture media (DMEM with GlutaMAX™ high glucose+5% dialyzed FBS+10 mM HEPES+1×MEM Non-Essential Amino Acids of a 384-well black plate with clear bottom for at least 18 hours at 37° C. and 5% CO2. The cell plate was loaded with 20 μl/well of the FLIPR© Calcium 5 Assay kit prepared in HBSS containing calcium and magnesium supplemented with 20 mM HEPES and 5 mM Probenecid at pH 7.4 and incubated at 37° C. and 5% CO2 for 30 minutes and then an additional 30 minutes at room temperature. The intracellular calcium response was measured using the FLIPR® Tetra instrument measuring the kinetic response of the calcium 5 dye at an excitation wavelength of 470-495 nm and emission wavelength of 515-575 nm at room temperature. The cells were initially challenged with a 5× concentration of the antagonist (10 μl/well) after an initial baseline recording and the calcium response was recorded for almost 2 minutes. After the completion of the initial antagonist challenge, the cell plate was incubated at room temperature in the FLIPR Tetra® instrument for 10 minutes. Finally, a second kinetic assay was performed after the 10 minute incubation at room temperature to measure the inhibitory response of the EC80 concentration of serotonin (15 μl/well) after an initial baseline recording. The IC50 concentration was determined for each antagonist tested.
In accordance with the in-vitro assay described above, the IC50 affinities for the c5-HT2B receptors for the compounds of the invention are provided in Table 1.
Background: Calcium flux is commonly read through the fluorescence of an indicator in the cells.
`N#Cc1c[nH]c2cc(C(=O)N[C@@H]3C[C@H]4CC[C@@H](C3)N4Cc3ccccc3)ccc12` [Example 19, N-((1R,3s,5S)-8-benzyl-8-azabicyclo[3.2.1]octan-3-yl)-3-cyano-1H-indole-6-carboxamide]: the IC50 – broadly, the concentration that gives 50% inhibition – was found to be 144 nM.

As for `O=C(N[C@@H]1C[C@H]2CC[C@@H](C1)N2Cc1cnccn1)c1ccc2cc[nH]c2c1` [Example 15, N-((1R,3s,5S)-8-(pyrazin-2-ylmethyl)-8-azabicyclo[3.2.1]octan-3-yl)-1H-indole-6-carboxamide], the IC50 amounted to 3700 nM.

In the case of `O=C(N[C@@H]1C[C@H]2CC[C@@H](C1)N2Cc1ccc2[nH]ccc2c1)c1ccc2cc[nH]c2c1` [Example 6, N-((1R,3s,5S)-8-((1H-indol-5-yl)methyl)-8-azabicyclo[3.2.1]octan-3-yl)-1H-indole-6-carboxamide], the half-maximal inhibitory concentration (IC50) worked out at 0.31 nM.

With `O=C(N[C@@H]1C[C@H]2CC[C@@H](C1)N2Cc1ccccn1)c1ccc2cc[nH]c2c1` [Example 12, N-((1R,3s,5S)-8-(pyridin-2-ylmethyl)-8-azabicyclo[3.2.1]octan-3-yl)-1H-indole-6-carboxamide], the half-maximal inhibitory concentration (IC50) came out at 54.3 nM.

Turning to `O=C(N[C@@H]1C[C@H]2CC[C@@H](C1)N2Cc1ccc(Cl)cc1)c1ccc2cc[nH]c2n1` [Example 3, N-((1R,3s,5S)-8-(4-chlorobenzyl)-8-azabicyclo[3.2.1]octan-3-yl)-1H-pyrrolo[2,3-b]pyridine-6-carboxamide], the IC50 was 1.53 nM.

`O=C(N[C@@H]1C[C@H]2CC[C@@H](C1)N2Cc1cccs1)c1ccc2cc[nH]c2c1` [Example 7, N-((1R,3s,5S)-8-(thiophen-2-ylmethyl)-8-azabicyclo[3.2.1]octan-3-yl)-1H-indole-6-carboxamide]: the IC50 was found to be 1.3 nM.

For the compound `O=C(N[C@@H]1C[C@H]2CC[C@@H](C1)N2Cc1ccccc1)c1ccc2cc[nH]c2n1` [Example 2, N-((1R,3s,5S)-8-benzyl-8-azabicyclo[3.2.1]octan-3-yl)-1H-pyrrolo[2,3-b]pyridine-6-carboxamide], the IC50 is 0.15 nM.

In the case of `O=C(N[C@@H]1C[C@H]2CC[C@@H](C1)N2Cc1nccs1)c1ccc2cc[nH]c2c1` [Example 27, N-((1R,3s,5S)-8-(thiazol-2-ylmethyl)-8-azabicyclo[3.2.1]octan-3-yl)-1H-indole-6-carboxamide], the IC50 is 108 nM.

For `O=C(N[C@@H]1C[C@H]2CC[C@@H](C1)N2Cc1ccccc1)c1ccc2ccoc2c1` [Example 24, N-((1R,3s,5S)-8-benzyl-8-azabicyclo[3.2.1]octan-3-yl)benzofuran-6-carboxamide], the half-maximal inhibitory concentration (IC50) was 0.5 nM.

In the case of `O=C(N[C@@H]1C[C@H]2CC[C@@H](C1)N2Cc1ccccc1)c1ccc2ccn(-c3ccncc3)c2c1` [Example 18, N-((1R,3s,5S)-8-benzyl-8-azabicyclo[3.2.1]octan-3-yl)-1-(pyridin-4-yl)-1H-indole-6-carboxamide], the IC50 is 538 nM.

On to `O=C(N[C@@H]1C[C@H]2CC[C@@H](C1)N2Cc1ccns1)c1ccc2cc[nH]c2c1` [Example 25, N-((1R,3s,5S)-8-(isothiazol-5-ylmethyl)-8-azabicyclo[3.2.1]octan-3-yl)-1H-indole-6-carboxamide], for which the IC50 came out at 1.4 nM.

For the compound `O=C(N[C@@H]1C[C@H]2CC[C@@H](C1)N2Cc1ccncc1)c1ccc2cc[nH]c2c1` [Example 14, N-((1R,3s,5S)-8-(pyridin-4-ylmethyl)-8-azabicyclo[3.2.1]octan-3-yl)-1H-indole-6-carboxamide], the IC50 came out at 2800 nM.

Regarding `O=C(N[C@@H]1C[C@H]2CC[C@@H](C1)N2Cc1ccccc1)c1ccc2ccn(-c3ccccc3)c2c1` [Example 23, N-((1R,3s,5S)-8-benzyl-8-azabicyclo[3.2.1]octan-3-yl)-1-phenyl-1H-indole-6-carboxamide], the IC50 was 57 nM.

Consider `O=C(N[C@@H]1C[C@H]2CC[C@@H](C1)N2Cc1ccsn1)c1ccc2cc[nH]c2c1` [Example 26, N-((1R,3s,5S)-8-(isothiazol-3-ylmethyl)-8-azabicyclo[3.2.1]octan-3-yl)-1H-indole-6-carboxamide], for which the IC50 turned out to be 17.7 nM.

For `O=C(N[C@@H]1C[C@H]2CC[C@@H](C1)N2Cc1ccccc1)c1ccc2ccn(-c3ccc(F)cc3)c2c1` [Example 22, N-((1R,3s,5S)-8-benzyl-8-azabicyclo[3.2.1]octan-3-yl)-1-(4-fluorophenyl)-1H-indole-6-carboxamide], the concentration for half-maximal inhibition (IC50) worked out at 32 nM.

Take `O=C(N[C@@H]1C[C@H]2CC[C@@H](C1)N2Cc1ccc(C(F)(F)F)cc1)c1ccc2cc[nH]c2c1` [Example 11, N-((1R,3s,5S)-8-(4-(trifluoromethyl)benzyl)-8-azabicyclo[3.2.1]octan-3-yl)-1H-indole-6-carboxamide]: the IC50 came to 92.3 nM.

Consider `Cc1cc2ccc(C(=O)N[C@@H]3C[C@H]4CC[C@@H](C3)N4Cc3ccccc3)cc2[nH]1` [Example 8, N-((1R,3s,5S)-8-benzyl-8-azabicyclo[3.2.1]octan-3-yl)-2-methyl-1H-indole-6-carboxamide], for which the IC50 is 4 nM.

Take `O=C(N[C@@H]1C[C@H]2CC[C@@H](C1)N2Cc1ccccc1)c1ccc2cc[nH]c2c1` [Example 1, N-((1R,3s,5S)-8-benzyl-8-azabicyclo[3.2.1]octan-3-yl)-1H-indole-6-carboxamide]: the IC50 came out at 0.41 nM.

As for `O=C(N[C@@H]1C[C@H]2CC[C@@H](C1)N2Cc1cccnc1)c1ccc2cc[nH]c2c1` [Example 13, N-((1R,3s,5S)-8-(pyridin-3-ylmethyl)-8-azabicyclo[3.2.1]octan-3-yl)-1H-indole-6-carboxamide], the IC50 was found to be 663 nM.

Consider `O=C(N[C@@H]1C[C@H]2CC[C@@H](C1)N2Cc1ccccc1)c1ccc2cc(C(F)(F)F)[nH]c2c1` [Example 20, N-((1R,3s,5S)-8-benzyl-8-azabicyclo[3.2.1]octan-3-yl)-2-(trifluoromethyl)-1H-indole-6-carboxamide], for which the IC50 came out at 21 nM.

Turning to `O=C(N[C@@H]1C[C@H]2CC[C@@H](C1)N2Cc1ccccc1)c1ccc2c3c([nH]c2c1)CCCC3` [Example 9, N-((1R,3s,5S)-8-benzyl-8-azabicyclo[3.2.1]octan-3-yl)-2,3,4,9-tetrahydro-1H-carbazole-7-carboxamide], the IC50 was found to be 112 nM.

On to `O=C(N[C@@H]1C[C@H]2CC[C@@H](C1)N2Cc1ccccc1)c1ccc2ccn(-c3ccc(C(F)(F)F)cc3)c2c1` [Example 21, N-((1R,3s,5S)-8-benzyl-8-azabicyclo[3.2.1]octan-3-yl)-1-(4-(trifluoromethyl)phenyl)-1H-indole-6-carboxamide], for which the IC50 was determined as 1100 nM.

On to `O=C(N[C@@H]1C[C@H]2CC[C@@H](C1)N2Cc1ccc(F)cc1)c1ccc2cc[nH]c2c1` [Example 4, N-((1R,3s,5S)-8-(4-fluorobenzyl)-8-azabicyclo[3.2.1]octan-3-yl)-1H-indole-6-carboxamide], for which the IC50 is 0.12 nM.

Turning to `O=C(N[C@@H]1C[C@H]2CC[C@@H](C1)N2Cc1ccc(Cl)cc1)c1ccc2cc[nH]c2c1` [Example 5, N-((1R,3s,5S)-8-(4-chlorobenzyl)-8-azabicyclo[3.2.1]octan-3-yl)-1H-indole-6-carboxamide], the IC50 is 0.27 nM.

As to `Cc1csc(CN2[C@@H]3CC[C@H]2C[C@H](NC(=O)c2ccc4cc[nH]c4c2)C3)n1` [Example 28, N-((1R,3s,5S)-8-((4-methylthiazol-2-yl)methyl)-8-azabicyclo[3.2.1]octan-3-yl)-1H-indole-6-carboxamide], the IC50 was found to be 200 nM.

On to `O=C(N[C@@H]1C[C@H]2CC[C@@H](C1)N2Cc1ccccc1)c1ccc2cn[nH]c2c1` [Example 10, N-((1R,3s,5S)-8-benzyl-8-azabicyclo[3.2.1]octan-3-yl)-1H-indazole-6-carboxamide], for which the IC50 turned out to be 432 nM.

Consider `O=C(N[C@@H]1C[C@H]2CC[C@@H](C1)N2c1ccccc1)c1ccc2cc[nH]c2c1` [Example 17, N-((1R,3s,5S)-8-phenyl-8-azabicyclo[3.2.1]octan-3-yl)-1H-indole-6-carboxamide], for which the concentration for half-maximal inhibition (IC50) was found to be 8280 nM.

Take `Cn1ccnc1CN1[C@@H]2CC[C@H]1C[C@H](NC(=O)c1ccc3cc[nH]c3c1)C2` [Example 16, N-((1R,3s,5S)-8-((1-methyl-1H-imidazol-2-yl)methyl)-8-azabicyclo[3.2.1]octan-3-yl)-1H-indole-6-carboxamide]: the IC50 amounted to 8700 nM.
